Measured values reported in patent EP0463492A1, “2,6-Diarylpyridin derivatives” (BAYER AG, priority 1990, dated 1992).

Test system: Testpflanzen
Assay: Post-emergence test (greenhouse)
Assay type: in vivo
Settings: post-emergence spray on test plants 5 - 15 cm high, 1000 l Wasser/ha; rated after three weeks as % Schädigung versus untreated control (0 % = keine Wirkung, 100 % = totale Vernichtung); application rates and plant species not given
Excerpt: Post-emergence-Test (Gewächshaus) • Lösungsmittel: 5 Gewichtsteile Aceton • Emulgator: 1 Gewichtsteil Alkylarylpolyglykolether
Zur Herstellung einer zweckmäßigen Wirkstoffzubereitung vermischt man 1 Gewichtsteil Wirkstoff mit den angegebenen Menge Lösungsmittel, gibt die angegebene Menge Emulgator zu und verdünnt das Konzentrat mit Wasser auf die gewünschte Konzentration.
Mit der Wirkstoffzubereitung spritzt man Testpflanzen, welche eine Höhe von 5 - 15 cm haben so, daß die jeweils gewünschten Wirkstoffmengen pro Flächeneinheit ausgebracht werden. Die Konzentration der Spritzbrühe wird so gewählt, daß in 1000 I Wasser/ha die jeweils gewünschten Wirkstoffmengen ausgebracht werden. Nach drei Wochen wird der Schädigungsgrad der Pflanzen bonitiert in % Schädigung im Vergleich zur Entwicklung der unbehandelten Kontrolle.
Es bedeuten: • 0 % = keine Wirkung (wie unbehandelte Kontrolle) • 100 % = totale Vernichtung

SMILES: CCOc1cc(-c2ccccc2)nc(-c2cccc(CC)c2)c1 [Beispiel 2, 4-Ethoxy-2-(3-ethylphenyl)-6-phenyl-pyridin]
- Wirksamkeit und Nutzpflanzenselektivität: sehr gute Wirksamkeit und Nutzpflanzenselektivität
